Measured values published in patent publication US12312605B2, “Riboflavin derivative-containing medium” (AJINOMOTO CO., INC., priority 2017, dated 2025).
Where a name gives a salt, the structure may show the parent alone.

Legend:
Type in all cases: cell-based
iPS cells (201B7 strain) [1] = assay: Effective concentration of RFV derivatives: iPS cell growth in medium refrigerated for 2 weeks; design: key to cell growth: X; not grown; ◯; cell grown; settings: for storage stability of medium compared with RFV: any medium (Essential 8 or TeSR2 supplement), refrigerated 2 weeks
Procedure: (§1) 201B7 strain purchased from iPS Academia Japan, Inc. was used as the iPS cell. Cell culture was performed using a culture vessel coated with Matrigel (Nippon Becton, Dickinson and Company: 354277) or iMatrix-511 (Nippi. Inc.: 892002) as an extracellular matrix under conditions of 5% CO2/37° C.
(§2) Modified DMEM/F-12 was mixed with each supplement of Essential 8 (Thermo Fisher SCIENTIFIC: A1517001), TeSR-E8 (STEMCELL Technologies: #05940), TeSR2 (STEMCELL Technologies: #05860) to prepare a complete medium. The medium was stored in a refrigerator with a glass door under non-light-shielding (fluorescent light irradiation time: 10 hr/day) and then used for culture, based on which the storage stability of the medium was studied.
The effectiveness of FAD and RTB, which are RFV derivatives, was studied, and the effective concentration ranges of FMN, FAD and RTB were studied. A complete medium was prepared using Modified DMEM/F-12 (FMN−) as the basal medium and Essential 8 or TeSR2 supplement as the supplement. RFV, FMN (Riboflavin 5′-Monophosphate Sodium Salt), FAD (Flavin Adenine Dinucleotide Disodium Salt Hydrate (Tokyo Chemical m Industry Co., Ltd., F0014, hereinafter the same)) and RTB (Riboflavin Tetrabutyrate, Wako Pure Chemical Industries, Ltd., 185-00861) were each added to the complete medium at a final concentration of 0.47 to 15.2 μM (concentration converted to free form anhydrate in the case of salt and/or hydrate). A medium supplemented with Fe^2+ and Zn^2+ at 100 mol % was also prepared.
(§3) Each medium was refrigerated under non-light-shielding for 2 weeks and then the proliferation ability of iPS cells was studied. A 12-well plate coated with Matrigel was prepared, 10,000 cells per well were seeded in a single cell state. On the day when the cells were seeded, the evaluation was performed using the medium prepared above. The culture period was set to 7 days, and the cell confluency was measured using IncuCyte Zoom on day 7 from the start of the culture. At the time of seeding, a medium supplemented with Y-27632 at a final concentration of 10 μM was used. In the evaluation from the following day, the cells were cultured in a medium not supplemented with Y-27632.
To study the effective concentration range of FAD, which is an RFV derivative, the unperformed part of Example 5 was evaluated. A complete medium was prepared using Modified DMEM/F-12 (FMN−) as the basal medium and TeSR2 supplement as the supplement. FAD (Flavin Adenine Dinucleotide Disodium Salt Hydrate) was added to the complete medium at a final concentration of 0.47 to 15.2 μM. A medium supplemented with Fe^2+ and Zn^2+ at 100 mol % was prepared.

iPS cells (201B7 strain) [2] = assay: Influence of Fe, Zn, RFV on storage stability of medium (iPS cell confluency); settings: Essential 8 supplement; for contribution to lowering of storage stability of the medium: 100 vs 25 mol % in Modified DMEM/F-12 with FMN 20 mol %, refrigerated 2 weeks
Procedure: as §1, §2
To what extent Fe^2+, Zn^2+ and RFV contribute to the storage stability of the medium was studied. Complete media were respectively prepared by adding each component to Modified DMEM/F-12 (FMN−) (Table 5). Each medium was refrigerated under non-light-shielding for 0 and 2 weeks and then the proliferation ability of iPS cells was studied.
as §3, with “A” for “Each medium was refrigerated under non-light-shielding for 2 weeks and then the proliferation ability of iPS cells was studied. A”

iPS cells (201B7 strain) [3] = assay: Effectiveness of RFV during iPS cell culture (cell confluency, day 7); settings: Modified DMEM/F-12 (FMN-) + Essential 8 supplement, RFV 0.00-0.176 mg/L, Fe2+ and Zn2+ 25 or 100 mol %, Matrigel
Procedure: 201B7 strain purchased from iPS Academia Japan, Inc. was used as the iPS cell. Cell culture was performed using a culture vessel coated with Matrigel (Nippon Becton, Dickinson and Company: 354277) or iMatrix-511 (Nippi. Inc.: 892002) as an extracellular matrix under conditions of 5% CO2/37° C. Whether RFV is an essential component during iPS cell culture was studied. A complete medium was prepared by mixing the basal medium (Solution A: Modified DMEM/F-12 (FMN−)) and Essential 8 supplement (Solution B). Media were prepared by adding RFV to the complete medium to final concentrations of 0.00, 0.0176, 0.044, 0.088, 0.176 mg/L (No. 1 to No. 5 in Table 3). Along therewith, to grasp the influence of the reduced mineral components, media supplemented with Fe^2+ and Zn^2+ at 100 mol % were also prepared (No. 6 to No. 10 in Table 3). After preparing the medium, a 12-well plate coated with Matrigel was prepared, and 10,000 cells per well were seeded in a single cell state. On the day when the cells were seeded, the evaluation was performed using the medium prepared above. The culture period was set to 7 days, and the cell confluency was measured as an index of cell proliferation using IncuCyte Zoom (Essen Bioscience) on day 7 from the start of the culture. […]

[4] = 0.47 μM (80 mol % vs DMEM/F-12), Fe2+ and Zn2+ 25 mol %, Essential 8 supplement, medium refrigerated 2 weeks
[5] = 0.47 μM (80 mol % vs DMEM/F-12), Fe2+ and Zn2+ 25 mol %, TeSR2 supplement, medium refrigerated 2 weeks
[6] = 0.47 μM (80 mol % vs DMEM/F-12), Fe2+ and Zn2+ 100 mol %, Essential 8 supplement, medium refrigerated 2 weeks
[7] = 0.47 μM (80 mol % vs DMEM/F-12), Fe2+ and Zn2+ 100 mol %, TeSR2 supplement, medium refrigerated 2 weeks, Example 5
[8] = 1.52 μM (259 mol % vs DMEM/F-12), Fe2+ and Zn2+ 25 mol %, Essential 8 supplement, medium refrigerated 2 weeks
[9] = 1.52 μM (259 mol % vs DMEM/F-12), Fe2+ and Zn2+ 100 mol %, Essential 8 supplement, medium refrigerated 2 weeks
[10] = 2.57 μM (437 mol % vs DMEM/F-12), Fe2+ and Zn2+ 25 mol %, TeSR2 supplement, medium refrigerated 2 weeks
[11] = 2.57 μM (437 mol % vs DMEM/F-12), Fe2+ and Zn2+ 100 mol %, TeSR2 supplement, medium refrigerated 2 weeks, Example 5
[12] = 15.2 μM (2587 mol % vs DMEM/F-12), Fe2+ and Zn2+ 25 mol %, TeSR2 supplement, medium refrigerated 2 weeks
[13] = 15.2 μM (2587 mol % vs DMEM/F-12), Fe2+ and Zn2+ 100 mol %, TeSR2 supplement, medium refrigerated 2 weeks, Example 5

| Compound | cell growth (iPS cells (201B7 strain) [1]; [4]) | cell growth (iPS cells (201B7 strain) [1]; [5]) | cell growth (iPS cells (201B7 strain) [1]; [6]) | cell growth (iPS cells (201B7 strain) [1]; [7]) | cell growth (iPS cells (201B7 strain) [1]; [8]) | cell growth (iPS cells (201B7 strain) [1]; [9]) | cell growth (iPS cells (201B7 strain) [1]; [10]) | cell growth (iPS cells (201B7 strain) [1]; [11]) | cell growth (iPS cells (201B7 strain) [1]; [12]) | cell growth (iPS cells (201B7 strain) [1]; [13]) | storage stability of medium compared with RFV (iPS cells (201B7 strain) [1]) | contribution to lowering of storage stability of the medium (iPS cells (201B7 strain) [2]) | cell growth (iPS cells (201B7 strain) [1]; 0.47 μM (80 mol % vs DMEM/F-12), Fe2+ and Zn2+ 100 mol %, TeSR2 supplement, medium refrigerated 2 weeks, Example 6) | cell growth (iPS cells (201B7 strain) [1]; 2.57 μM (437 mol % vs DMEM/F-12), Fe2+ and Zn2+ 100 mol %, TeSR2 supplement, medium refrigerated 2 weeks, Example 6) | cell growth (iPS cells (201B7 strain) [1]; 15.2 μM (2587 mol % vs DMEM/F-12), Fe2+ and Zn2+ 100 mol %, TeSR2 supplement, medium refrigerated 2 weeks, Example 6) | concentration at which culturing was possible (comparison) (iPS cells (201B7 strain) [1]; Essential 8 or TeSR2 supplement, medium refrigerated 2 weeks) | cell growth after storage of medium (iPS cells (201B7 strain) [2]; medium refrigerated non-light-shielded 2 weeks, Matrigel, day 7) | effectiveness of RFV during iPS cell culture (cell confluency) (iPS cells (201B7 strain) [3]) |
| --- | --- | --- | --- | --- | --- | --- | --- | --- | --- | --- | --- | --- | --- | --- | --- | --- | --- | --- |
| Cc1cc2nc3c(=O)[nH]c(=O)nc-3n(C[C@H](O)[C@H](O)[C@H](O)COP(=O)(O)O)c2cc1C [FMN, Riboflavin 5′-Monophosphate Sodium Salt] | ◯ | ◯ | ◯ | ◯ | X | X | ◯ | X | X | X | higher storage stability than that of RFV | – | – | – | – | – | – | – |
| O.O.O.O.O.O.O.O=S(=O)([O-])[O-].[Fe+2] [Fe^2+, iron (II) sulfate heptahydrate] | – | – | – | – | – | – | – | – | – | – | – | do not contribute to lowering of storage stability | – | – | – | – | – | – |
| Cc1cc2nc3c(=O)[nH]c(=O)nc-3n(C[C@H](O)[C@H](O)[C@H](O)COP(=O)(O)OP(=O)(O)OC[C@H]3O[C@@H](n4cnc5c(N)ncnc54)[C@H](O)[C@@H]3O)c2cc1C [FAD, Flavin Adenine Dinucleotide Disodium Salt Hydrate] | ◯ | ◯ | ◯ | ◯ | ◯ | X | ◯ | – | ◯ | X | higher storage stability than that of RFV | – | ◯ | ◯ | X | higher for FAD than FMN and RTB | – | – |
| O.O.O.O.O.O.O.O=S(=O)([O-])[O-].[Zn+2] [Zn^2+, zinc sulfate heptahydrate] | – | – | – | – | – | – | – | – | – | – | – | do not contribute to lowering of storage stability | – | – | – | – | – | – |
| Cc1cc2nc3c(=O)[nH]c(=O)nc-3n(C[C@H](O)[C@H](O)[C@H](O)CO)c2cc1C [RFV, riboflavin] | X | ◯ | X | ◯ | X | X | X | X | X | X | – | – | – | – | – | – | cells could not grow after storage for 2 weeks | essential for cell culture |
| CCCC(=O)OC[C@@H](OC(=O)CCC)[C@@H](OC(=O)CCC)[C@H](Cn1c2nc(=O)[nH]c(=O)c-2nc2cc(C)c(C)cc21)OC(=O)CCC [RTB, Riboflavin Tetrabutyrate] | ◯ | ◯ | ◯ | ◯ | X | X | X | X | X | X | higher storage stability than that of RFV | – | – | – | – | – | – | – |
